SMILES strings stand for the structures. In brackets after ≈: the same amount, converted by molar mass. Where only a bound is given, the exact number is not on record here.

The test system of one series is S. pneumoniae 11733. Nature of the series: MIC, broth dilution method, S. pneumoniae. The conditions noted are these: Streptococcus pneumoniae, 11733; Gram-positive bacteria; in vitro, broth dilution; read-out: MIC S. pneumoniae 11733. The class given is cell-based. As for the experimental part:
(§1) Minimum Inhibition Concentration (MIC), Broth Dilution Method:
(§2) The compounds of the present invention were tested against an assortment of Gram positive and Gram negative organisms using standard microtitration techniques well known to those skilled in the art. Cultures of bacteria are initially brought up from the freezer by streaking a loopful onto agar plates under the appropriate conditions. For instance bacterial stocks are streaked onto chocolate agar and then incubated for 18 hours at 35-37° C. in a 5% CO2 incubator. Five to ten colonies are picked from the chocolate agar plate for subculture to Brain-Heart infusion (BHI) broth, Mueller Hinton broth, or BHI containing 4% serum and incubated under the appropriate conditions. The ability of the test compound to act as an antimicrobial is determined by the ability to inhibit bacterial growth in vitro. The optical density of the culture of organisms in the presence of an active compound is compared to the optical density of the same organism untreated. The activity of the compounds is described as either negative or the lowest concentration inhibiting growth (Minimum Inhibitory Concentration [MIC]).
On the technique in general: Dilution methods test growth across graded concentrations, often in twofold steps.

The next series relates to H. influenzae 43095. The series can be described thus: MIC, broth dilution method, H. influenzae. Format: cell-based. The conditions noted are these: Haemophilus influenzae, 43095; Gram-negative bacteria; in vitro, broth dilution; read-out: MIC H. influenzae 43095. As to the method:
as §1, §2

The next series deals with E. coli 43888. Nature of the series: MIC, broth dilution method, E. coli. The conditions noted are these: Escherichia coli, 43888; Gram-negative bacteria; in vitro, broth dilution; read-out: MIC E. coli 43888. Format: cell-based. As to the method:
as §1, §2

Another series deals with S. aureus 29213. The series can be described thus: MIC, broth dilution method, S. aureus. The class given is cell-based. The conditions noted are these: Staphylococcus aureus, 29213; Gram-positive bacteria; in vitro, broth dilution; read-out: MIC S. aureus 29213. As to the method:
as §1, §2

For orientation: melting point means the temperature of the solid-liquid transition. The compound `Oc1ccccc1Oc1ccc(-c2ccsc2)cc1O` [Example 1, 2-(2-Hydroxy-phenoxy)-5-(thiophen-3-yl)-phenol] displayed a melting point of 114 to 116 °C. Also, the MIC with S. pneumoniae 11733 amounted to 2 µg/mL (≈ 7.03 µM). Further, the MIC in the series on H. influenzae 43095 amounted to 2 µg/mL (≈ 7.03 µM). For the same compound, the MIC with E. coli 43888 was found to be 15.7 µg/mL (≈ 55.2 µM). The MIC in the series on S. aureus 29213 came to 4 µg/mL (≈ 14.1 µM).

`Cc1ccc(Oc2ccc(-c3cccs3)cc2O)c(O)c1` [Example 3, 2-(2-Hydroxy-4-methyl-phenoxy)-5-(thiophen-2-yl)-phenol]: the melting point lay within 91 to 92 °C. Also, the MIC with S. pneumoniae 11733 was 1 µg/mL (≈ 3.35 µM). The MIC in the series with H. influenzae 43095 stood at 4 µg/mL (≈ 13.4 µM). In the series with E. coli 43888, the MIC is 15.7 µg/mL (≈ 52.6 µM). For the same compound, the MIC in the series with S. aureus 29213 is 4 µg/mL (≈ 13.4 µM).

As for `Cc1ccc(Oc2ccc(C3NCCS3)cc2)c(O)c1` (stereo not shown) [Example 5, 5-Methyl-2-[4-(thiazolidin-2-yl)-phenoxy]-phenol], the melting point is 197 to 199 °C. Moreover, the MIC in the series on S. pneumoniae 11733 was 4 µg/mL (≈ 13.9 µM). Besides, in the series on H. influenzae 43095, the MIC is 0.125 µg/mL (≈ 0.435 µM). The MIC in the series on E. coli 43888 came to 4 µg/mL (≈ 13.9 µM). For the same compound, in the series on S. aureus 29213, the MIC is 0.5 µg/mL (≈ 1.74 µM).

`Cc1ccc(Oc2ccc(C3NC(C(=O)O)CS3)cc2)c(O)c1` (stereo not shown) [Example 7, 2-[4-(2-Hydroxy-4-methyl-phenoxy)-phenyl]-thiazolidine-4-carboxylic acid]: the melting point is 172 to 174 °C (dec.). Also, in the series with S. pneumoniae 11733, the MIC came to 1 µg/mL (≈ 3.02 µM). Moreover, the MIC in the series on H. influenzae 43095 is 1 µg/mL (≈ 3.02 µM). The MIC in the series on E. coli 43888 came out at 4 µg/mL (≈ 12.1 µM). Besides, the MIC in the series on S. aureus 29213 was 0.25 µg/mL (≈ 0.754 µM).

`Cc1ccc(Oc2ccc(C3NC(C(=O)O)CCS3)cc2)c(O)c1` (stereo not shown) [Example 8, 2-[4-(2-Hydroxy-4-methyl-phenoxy)-phenyl]-[1, 3]thiazinane-4-carboxylic acid]: the melting point was 140 to 145 °C (dec.). Besides, the MIC with S. pneumoniae 11733 was 4 µg/mL (≈ 11.6 µM). The MIC with H. influenzae 43095 amounted to 0.5 µg/mL (≈ 1.45 µM). Further, the MIC in the series on E. coli 43888 was determined as 4 µg/mL (≈ 11.6 µM). The MIC with S. aureus 29213 came to 0.5 µg/mL (≈ 1.45 µM).

Compound `Cc1ccc(Oc2ccc(C3NC(C(=O)O)CS3)cc2C#N)c(O)c1` (stereo not shown) [Example 9, 2-[3-Cyano-4-(2-hydroxy-4-methyl-phenoxy)-phenyl]-thiazolidine-4-carboxylic acid] showed a melting point of 150 to 152 °C. Further, the MIC in the series on S. pneumoniae 11733 came out at 4 µg/mL (≈ 11.2 µM). The MIC with H. influenzae 43095 was determined as 4 µg/mL (≈ 11.2 µM). Also, the MIC in the series on E. coli 43888 was 4 µg/mL (≈ 11.2 µM). In addition, the MIC in the series on S. aureus 29213 turned out to be 2 µg/mL (≈ 5.61 µM).

`Cc1ccc(Oc2ccc(C3NC(C(=O)O)CCS3)cc2C#N)c(O)c1` (stereo not shown) [Example 10, 2-[3-Cyano-4-(2-hydroxy-4-methyl-phenoxy)-phenyl]-[1,3]thiazinane-4-carboxylic acid]: the melting point is 147 to 150 °C (dec.). Besides, the MIC in the series on S. pneumoniae 11733 came out at 2 µg/mL (≈ 5.4 µM). Besides, the MIC with H. influenzae 43095 came out at 2 µg/mL (≈ 5.4 µM). Besides, in the series on E. coli 43888, the MIC was determined as 4 µg/mL (≈ 10.8 µM). The MIC with S. aureus 29213 came to 2 µg/mL (≈ 5.4 µM).

For `Cc1ccc(Oc2ccc(-c3nnn[nH]3)cc2)c(O)c1` [Example 13, 5-Methyl-2-[4-(1H-tetrazol-5-yl)-phenoxy]-phenol and 5-methyl-2-[4-(2H-tetrazol-5-yl)-phenoxy]-phenol], the melting point was 173 to 175 °C. Besides, in the series on S. pneumoniae 11733, the MIC amounted to 7.9 µg/mL (≈ 29.4 µM). The MIC in the series with H. influenzae 43095 stood at 2 µg/mL (≈ 7.46 µM). Besides, the MIC with E. coli 43888 was 62.5 µg/mL (≈ 233 µM). The MIC in the series with S. aureus 29213 amounted to 7.9 µg/mL (≈ 29.4 µM).

On to `Cc1ccc(Oc2ccccc2-c2nnn[nH]2)c(O)c1` [Example 14, 5-Methyl-2-[2-(1H-tetrazol-5-yl)-phenoxy]-phenol and 5-methyl-2-[2-(2H-tetrazol-5-yl)-phenoxy]-phenol], for which the melting point lay within 205 to 207 °C. In addition, in the series on S. pneumoniae 11733, the MIC was determined as 2 µg/mL (≈ 7.46 µM). Further, the MIC in the series with H. influenzae 43095 is 0.125 µg/mL (≈ 0.466 µM). In addition, the MIC in the series with E. coli 43888 stood at 0.125 µg/mL (≈ 0.466 µM). For the same compound, in the series with S. aureus 29213, the MIC was determined as 0.002 µg/mL (≈ 0.00746 µM).

As for `Nc1nnc(-c2ccccc2Oc2ccc(F)cc2O)s1` [Example 22, 2-[2-(5-Amino-[1,3,4]thiadiazol-2-yl)-phenoxy]-5-fluoro-phenol], the melting point was 250 to 255 °C (dec.). In addition, the MIC in the series on S. pneumoniae 11733 stood at 25 µg/mL (≈ 82.4 µM). Moreover, the MIC with H. influenzae 43095 was above 25 µg/mL. Moreover, in the series on E. coli 43888, the MIC was above 25 µg/mL. The MIC with S. aureus 29213 worked out at 12.5 µg/mL (≈ 41.2 µM).

Consider `Cc1ccc(Oc2ccc(-c3nnc(N)s3)cc2)c(O)c1` [Example 23, 2-[4-(5-Amino-[1,3,4]thiadiazol-2-yl)-phenoxy]-5-methyl-phenol], for which the melting point was 240 to 243 °C (dec.). The MIC in the series with S. pneumoniae 11733 is 12.5 µg/mL (≈ 41.8 µM). In the series on H. influenzae 43095, the MIC was above 25 µg/mL. Further, in the series on E. coli 43888, the MIC stood at 25 µg/mL (≈ 83.5 µM). Further, in the series on S. aureus 29213, the MIC was found to be 1.6 µg/mL (≈ 5.34 µM).
